Reference: patent publication US8440617B2, “Hyperbaric treatment in wound healing” (The Trustees of the University of Pennsylvania, priority 2007, dated 2013)
Entries after “also recorded” stand apart in the source; their conditions may differ.

Tests used:
[1] = tested on: circulating EPCs (CXCR4+/VEGFR2+, Tie2+/VEGFR2+); test: Circulating EPCs by flow cytometry in STZ-diabetic mice; format: in vivo, mouse
Description: (§1) Tie2-GFP, wild-type or chimeric FVB mice at 6-12 wk of age were treated with STZ (Sigma-Aldrich) to induce diabetes. Mice were rendered diabetic by i.p. administration of 60 mg/kg STZ in 50 mM sodium citrate, pH 4.5, daily for 5 d. Control mice were treated with daily injections of citrate buffer. Serum glucose was measured from the mouse tail vein using a glucometer. Once serum glucose reached 250 mg/dL, mice were followed with daily measurements for 1 wk prior to use in experiments. Serum glucose levels in STZ mice averaged 461 mg/dL with a range of 372-520 mg/dL, while control mice serum glucose mean level was 120 mg/dL with a range of 94-135 mg/dL. Wounds were induced on the ventral surface of the mouse thigh using a 4 mm punch biopsy. Full-thickness skin was removed, exposing the underlying muscle.
(§2) For HBO treatment, mice were placed in an animal hyperbaric chamber (Reneau Corp.) and subjected to 100% oxygen at 2.4 atmospheres absolute (ATA) for 90 min (Davis Wound Healing Protocol). To measure continuous, real-time BM NO levels, NO microelectrodes was inserted into the femoral marrow cavity as previously described. An osteotomy was created on the patellar surface of the murine femur using a 25 G beveled needle, allowing the electrode to be lowered into the marrow space when the animal was placed in the hyperbaric chamber. In some mice, pretreatment with L-NAME (40 mg/kg i.p.) (Sigma-Aldrich) was given 2 h prior to exposure to HBO.
Mobilization of EPCs into circulation was studied using flow cytometry as previously described. Cells isolated from mice were incubated with various Abs (BD Biosciences). Isotype matched mouse immunoglobulins served as controls. One million viable cells were analyzed per sample using an LSR2 multicolor flow cytometer (BD Biosciences). Data was analyzed using FlowJo software (Treestar, Inc.).
Physiologically, increased levels of BM NO result in activation of MMP-9 and conversion of kit ligand to its soluble form, ultimately generating EPC release into circulation. To study the effects of the hyperoxia-induced rise in NO levels in the marrow cavity on mobilization of EPCs into circulation, peripheral blood from diabetic mice was analyzed for EPCs using flow cytometry. A determination of whether hyperoxia, induced by HBO, increases the number of circulating EPCs in the peripheral blood of diabetic mice was made. Specifically, peripheral blood of diabetic mice was examined 18 h after a single HBO treatment. After excluding dead DAPI^+labeled cells, candidate lymphocytes, identified by their typical appearance on forward and side scatter, were gated and CD45^+/CD3^+cell populations were excluded. […] Therefore, several marker combinations were used to quantitate circulating EPCs. […]

[2] = tested on: wound EPCs (GFP+/VEGFR2+); test: EPC homing to wounds in diabetic GFP bone marrow chimeric mice; format: in vivo, mouse
Description: All procedures were done with approval from the University of Pennsylvania Institutional Animal Care and Use Committee (IACUC). 6-12 wk-old FVB wild-type mice (FVB/NJ), GFP (FVB/Tg) and Tie2-GFP (Tg(TIE2GFP)87 Sato/J) were purchased from The Jackson Laboratory. For all surgical procedures, mice were anesthetized with an i.p. injection of 80 mg/kg of ketamine (Phoenix Scientific, Inc.) and 20 mg/kg xylazine (Vedco Inc.). For BM transplantation experiments, 1×10^7 BM cells from GFP mice were transplanted to γ-irradiated (900 Rad) FVB wild type mouse via tail vein. […] For local wound SDF-1α injection, SDF-1α protein (R&D Systems) was reconstituted in PBS and injected into the wound base (25 μg/Kg).
For immunostaining, paraffin embedded serial sections (5 μm) were first underwent standard deparaffinizing and rehydration procedures and then probed with various Abs. To assess wound SDF-1α^+ cells, sections were double-stained with HTC-conjugated anti-SDF-1α and PE-conjugated different tissue-specific Abs (eBiosciences). To detect blood vessels in wound, sections were stained with HTC-conjugated anti-VEGFR2Ab. […] Tissue sections were analyzed using fluorescence microscopy and ImageJ (NIH) software to quantitate fluorescent intensity. In trichrome stained slides, blue stain (collagen content) was also quantitatively analyzed by ImageJ. […]

[3] = tested on: diabetic cutaneous wounds; test: Peripheral wound healing (wound closure) in diabetic mice; format: in vivo, mouse; settings: diabetic mice, 6 d post-wounding, FIG. 17A
Description: as §1
Initial wound surface area was recorded and wounds were then followed serially with daily digital photographs using an Olympus digital camera. Photographs contained an internal scale to allow for standard calibration of measurements. Wound area was quantified using ImageJ software. Wound area was expressed as the percentage of original wound size. Wounds were followed for 6 d and mice were sacrificed at the conclusion of the experiment.
EPCs play a key role in vasculogenesis and cutaneous tissue repair. It was hypothesized that increased numbers of EPCs in circulation, along with enhanced EPC homing to wounds, results in improved wound healing in diabetes. Diabetic wound closure rates were studied, in response to treatment with HBO and SDF-1α alone and in combination. Wounded diabetic mice underwent daily wound injections with SDF-1α, PBS, HBO, or SDF-1α+HBO treatments. […] This healing response was greater than the response to either treatment modality alone. In addition, histochemical analysis was conducted to examine blood vessel density (VEGFR2 staining), cellularity and stromagenesis (H&E staining), and extracellular constitution (trichrome staining) in wound tissues. […]

wound granulation tissue = test: Histochemistry of diabetic wound tissue (VEGFR2 vessel density, H&E, trichrome collagen); format: in vivo, mouse; settings: diabetic wounds at d 6, FIG. 17D-E
Text: (§3) For immunostaining, paraffin embedded serial sections (5 μm) were first underwent standard deparaffinizing and rehydration procedures and then probed with various Abs. To assess wound SDF-1α^+ cells, sections were double-stained with HTC-conjugated anti-SDF-1α and PE-conjugated different tissue-specific Abs (eBiosciences). To detect blood vessels in wound, sections were stained with HTC-conjugated anti-VEGFR2Ab. For examination of wound EPC recruitment in BM transplantation experiment, sections were double-stained with FITC-GFP and PE-VEGFR2 (BD Biosciences). Nuclei were counterstained with Hoescht dye. Masson's trichrome staining and H&E staining were performed using standard method and all reagents were from Sigma-Aldrich. Tissue sections were analyzed using fluorescence microscopy and ImageJ (NIH) software to quantitate fluorescent intensity. In trichrome stained slides, blue stain (collagen content) was also quantitatively analyzed by ImageJ.
EPCs play a key role in vasculogenesis and cutaneous tissue repair. It was hypothesized that increased numbers of EPCs in circulation, along with enhanced EPC homing to wounds, results in improved wound healing in diabetes. Diabetic wound closure rates were studied, in response to treatment with HBO and SDF-1α alone and in combination. Wounded diabetic mice underwent daily wound injections with SDF-1α, PBS, HBO, or SDF-1α+HBO treatments. […]

[4] = Mouse serum SDF-1α ELISA after wound injection; format: in vivo; settings: 2 h following wound injection of SDF-1α
Description: Mouse serum SDF-1α concentration was measured by Quantikine® mouse SDF-1α ELISA kit (R&D Systems) based on manufacturer's protocol.

SDF-1α in wound tissue = test: Wound SDF-1α level (immunostaining); format: in vivo, mouse; settings: after SDF-1α injection, compared to nondiabetic wound
Text: as §3

[5] = tested on: EPC (cells co-expressing CD34 and Sca-1); test: EPC mobilization (CD34+/Sca-1+ cells in peripheral blood) in mice exposed to HBO2; format: in vivo, mouse; settings: wild-type mice, 40 mg/kg i.p. 2 hours prior to pressurization
Description: In the initial studies searching for the mechanisms for EPC mobilization with HBO2 EPC (assessed as cells that co-expressed CD34 and stem cell antigen-1 (Sca-1)) were also evaluated in peripheral blood of mice. […] In preliminary studies, mice were exposed to HBO2 for 90 minutes at up to 2.8 ATA and also to a pressure control, 2.8 ATA pressure using a gas containing 7.5% O2 (so that O2 partial pressure was the same as ambient air, 0.21 ATA O2). In select studies, mice were pre-treated with intraperitoneal L-nitroarginine methyl ester (L-NAME, to inhibit nitric oxide synthase [NOS]), 40 mg/kg i.p. administered 2 hours prior to pressurization). In anesthetized mice, blood was obtained by aortic puncture and bone marrow was harvested by clipping the ends off a tibia and flushing the marrow cavity with 1 ml PBS. Exposure to 2.8 ATA O2 (but not 100% O2 at ambient pressure or 2.8 ATA pressure at a total O2 partial pressure of only 0.21 ATA O2) increased EPC mobilization immediately after treatment, as well as 16 hrs post-treatment, and with repeated treatments (FIG. 4).
There is precedence for rapid mobilization of stem cells from bone marrow, but most emigration is believed to occur after a period of cell proliferation within the marrow niche.

stem cell factor (SCF) = test: Plasma stem cell factor by Quantikine M immunoassay in mice (Table I); format: in vivo, mouse; settings: for Plasma SCF if mice pre-treated with L-NAME: L-NAME pre-treatment
[6] = tested on: NO synthesis in bone marrow (NOS); test: Real-time bone marrow NO measurement with NO microelectrode during HBO; format: in vivo, mouse
Description: as §2
In early studies, it was hypothesized that HBO2 augments stem cell mobilization because it stimulates •NO synthesis in the bone marrow, as •NO is known to play a central role with stem cell release from bone marrow. […] Mice were placed in a hyperbaric chamber where, while breathing air, baseline measurements were obtained. The chamber was then flushed with 100% O2 and compressed to 2.4 ATA O2.
Physiologically, the NO-mediated EPC release into circulation occurs in response to tissue-level hypoxia, although this compensatory response is inadequate in the setting of diabetes and results in severe defects in neovascularization and wound healing. […] Therefore, it was sought to utilize HBO as a tool to augment EPC release into circulation and further study both EPC mobilization and wound-homing mechanisms in the presence of diabetes. The goal was to determine whether hyperoxia stimulates NO production in the BM of diabetic mice via a NOS-mediated pathway and whether this pathway is impaired in diabetes. To test this hypothesis, Nafion polymer—coated NO microsensors were inserted into the femur BM space of both STZ induced diabetic and nondiabetic mice to measure real-time NO levels within the BM prior to and is during HBO-induced hyperoxia. […] It was speculated, that this was likely due to a compensatory effect from other NOS isoforms, and therefore the level of both iNOS and nNOS was examined in diabetic mice. […] However, no observation was made of any changes in the phosphorylation of these NOS isoforms.

ischemic hindlimb wounds = test: Hindlimb ischemia (femoral ligation/excision): perfusion, wound BMD EPC and wound healing with daily HBO2; format: in vivo, mouse; settings: 40 mg/kg i.p.
Description: In addition, it was observed that HBO2 daily treatments (2.4ATA 100% O2 for 90 min) improved hindlimb perfusion by Laser Doppler Imaging (LDF) after femoral ligation/excision (FIG. 6) and increased the bone marrow-derived (BMD) EPC within the incisional wounds, 3 d post-wounding (with 4 HBO2 treatments) (FIG. 7). By day 8 after wounding, ischemic excisional punch biopsy wounds treated daily with HBO2 healed faster (FIG. 8). […] Each day animals were harvested, and blood (retro-orbital bleeding) and bone marrow (flushing of tibias and femurs) collected (3 mice for each time point had bone marrow collected and 5 mice for each time point had blood collected). VEGFR-2 (kdr) mRNA was semi-quantitated by RT PCR.

[7] = Induction of diabetes with STZ, serum glucose by glucometer; format: in vivo, mouse; settings: 60 mg/kg i.p. daily for 5 d
Description: as §1

## SDF-1α
[1]; wounded diabetic mice, 48 h post-wounding, FIG. 15A
  circulating EPCs versus other groups / PBS: statistically significant increase
[1]; wounded diabetic mice, daily treatment, 48 h post-wounding
  increase in circulating EPCs (CXCR4+/VEGFR2+): 2 fold
[2]; diabetic chimeric mice, 3 d of treatment, vs untreated diabetic mice
  increase in wound-level EPCs (GFP+/VEGFR2+): 3 fold
[2]; diabetic mice
  EPCs recruited/homing to wound tissue: significant increase
[3]
  wound healing rates compared with PBS treated controls: statistically improved
Wound granulation tissue
  collagen deposit and vessel density: significant increase
[4]
  systemic (peripheral blood) SDF-1α concentration: increased
SDF-1α in wound tissue
  local SDF-1α level in diabetic wound: dramatically increased

## COC(=O)[C@@H](N)CCCNC(=N)N[N+](=O)[O-] [L-NAME, L-nitroarginine methyl ester]
[5]
  EPC mobilization with L-NAME injected before HBO2: did not occur
Stem cell factor (SCF); air-breathing (control) mice
  Plasma SCF if mice pre-treated with L-NAME: 39.4 ± 1.9 pg/mL
Stem cell factor (SCF); then 2.8 ATA O2, 16 hours after
  Plasma SCF if mice pre-treated with L-NAME: 42.4 ± 2.5 pg/mL
Stem cell factor (SCF); mouse, in vivo
  HBO2-induced SCF elevation with L-NAME: blocked
[6]; 40 mg/kg ip before 2.4 ATA O2
  NO signal in bone marrow with L-NAME pre-treatment: no •NO signal was detected
[6]; diabetic and nondiabetic mice
  hyperoxia-induced increases in BM NO production after pretreatment: completely inhibited; also recorded: Complete inhibition
Ischemic hindlimb wounds
  HBO2 wound healing improvements with L-NAME prior to HBO2: not observed
[1]; mouse, in vivo
  EPC mobilization following HBO in L-NAME pre-treated animals: No increase; also recorded: inhibited

## CN(N=O)C(=O)N[C@@H](C=O)[C@@H](O)[C@H](O)[C@H](O)CO [STZ, streptozocin]
[7]
  Serum glucose, average: 461 mg/dL
  Serum glucose, range: 372 to 520 mg/dL
